Active and inactive are the calls of the source. Unless noted, the rule behind the calls is not given here.
How the values were obtained:
Plasmodium falciparum [1] = experiment: Inhibition of recombinant Plasmodium falciparum M1 aminopeptidase assessed as residual activity at 20 uM using Ala-AMC as substrate pretreated for 30 mins followed by substrate addition by fluorescence assay relative to control
Plasmodium falciparum [2] = experiment: Antimalarial activity against synchronized ring stage of […] Plasmodium falciparum 3D7 infected in human erythrocytes assessed as parasite growth at 25 uM after 72 hrs by YOYO-1 staining based flow cytometric analysis relative to control; assay type: functional
Plasmodium falciparum [3] = experiment: Antimalarial activity against synchronized ring stage of […] Plasmodium falciparum 3D7 infected in human erythrocytes assessed as parasite growth at 25 uM after 48 hrs by Giemsa staining based microscopic analysis; assay type: functional, cell-based
Erythrocyte = experiment: Hemolytic activity against human erythrocytes at 25 uM measured after 48 hrs; assay type: ADME, cell-based
Plasmodium falciparum [4] = experiment: (§1) Antimalarial activity against asynchronized chloroquine-resistant Plasmodium falciparum FcB1/Columbia assessed as reduction in [3H]-hypoxanthine incorporation by measuring parasite growth at 50 uM pretreated for 24 hrs followed by [3H]-hypoxanthine addition after 24 hrs by microbeta scintillation counting analysis relative to control; assay type: functional; design: scale not given: the % may be the effect or the level left
Plasmodium falciparum [5] = experiment: as §1, with “5” for “50”; assay type: functional; design: scale not given: the % may be the effect or the level left
Plasmodium falciparum [6] = experiment: Inhibition of Plasmodium falciparum M1 aminopeptidase at 200 uM using Ala-AMC as substrate by spectrofluorimetric assay
Plasmodium falciparum [7] = experiment: Antimalarial activity against synchronized ring stage of […] Plasmodium falciparum 3D7 infected in human erythrocytes assessed as parasite growth at 1 uM after 72 hrs by YOYO-1 staining based flow cytometric analysis relative to control; assay type: functional
[8] = Inhibition of recombinant Plasmodium falciparum M1 aminopeptidase using Ala-AMC as substrate pretreated for 30 mins followed by substrate addition by fluorescence assay
Plasmodium falciparum [9] = experiment: Antimalarial activity against synchronized ring stage of […] Plasmodium falciparum 3D7 infected in human erythrocytes after 48 hrs by Giemsa staining based microscopic analysis; assay type: functional, cell-based; details: 3D7, 48 h
Plasmodium falciparum [10] = experiment: Antimalarial activity against asynchronized chloroquine-resistant Plasmodium falciparum FcB1/Columbia assessed as reduction in [3H]-hypoxanthine incorporation pretreated for 24 hrs followed by [3H]-hypoxanthine addition after 24 hrs by microbeta scintillation counting analysis; assay type: functional
Aminopeptidase N = molecular target: T1, Aminopeptidase N (Sus scrofa, UniProt P15145); experiment: Inhibition of porcine kidney cortex aminopeptidase N using Leu-p-nitroanilide as substrate pretreated for 30 mins followed by substrate addition […]
T1 sequence (P15145 whole entry): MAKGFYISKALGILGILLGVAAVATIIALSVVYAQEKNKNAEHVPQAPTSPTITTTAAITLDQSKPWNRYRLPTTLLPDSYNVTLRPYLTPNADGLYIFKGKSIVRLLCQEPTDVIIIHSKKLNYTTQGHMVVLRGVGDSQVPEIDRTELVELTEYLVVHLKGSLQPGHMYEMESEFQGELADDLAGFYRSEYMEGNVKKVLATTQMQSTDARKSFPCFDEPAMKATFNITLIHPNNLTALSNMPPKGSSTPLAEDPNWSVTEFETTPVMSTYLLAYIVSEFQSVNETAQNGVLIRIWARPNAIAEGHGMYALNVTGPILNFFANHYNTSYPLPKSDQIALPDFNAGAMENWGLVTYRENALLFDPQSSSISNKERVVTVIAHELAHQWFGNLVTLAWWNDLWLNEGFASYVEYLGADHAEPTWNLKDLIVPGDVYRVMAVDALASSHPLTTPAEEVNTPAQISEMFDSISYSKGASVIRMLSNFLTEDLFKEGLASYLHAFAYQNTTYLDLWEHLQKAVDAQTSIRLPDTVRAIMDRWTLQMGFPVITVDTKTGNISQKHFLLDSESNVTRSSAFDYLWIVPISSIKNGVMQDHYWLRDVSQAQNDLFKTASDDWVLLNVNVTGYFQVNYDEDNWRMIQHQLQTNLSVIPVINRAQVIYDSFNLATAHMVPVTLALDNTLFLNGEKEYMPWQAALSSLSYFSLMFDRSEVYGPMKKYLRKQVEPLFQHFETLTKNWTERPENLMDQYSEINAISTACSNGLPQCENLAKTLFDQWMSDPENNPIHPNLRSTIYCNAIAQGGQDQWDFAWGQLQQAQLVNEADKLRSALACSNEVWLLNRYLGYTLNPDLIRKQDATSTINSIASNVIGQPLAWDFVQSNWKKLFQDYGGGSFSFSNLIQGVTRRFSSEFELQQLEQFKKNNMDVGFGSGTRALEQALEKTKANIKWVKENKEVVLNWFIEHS

[11] = Selectivity index, ratio of Ki for recombinant Plasmodium falciparum M1 aminopeptidase to Ki for porcine kidney cortex aminopeptidase N

Structure (SMILES) | Activity (Plasmodium falciparum [1]) | Activity (Plasmodium falciparum [2]) | Activity (Plasmodium falciparum [3]) | Activity (Erythrocyte) | Activity (Plasmodium falciparum [4]) | Activity (Plasmodium falciparum [5]) | inhibition (Plasmodium falciparum [6]) | Activity (Plasmodium falciparum [7]) | Ki [8] | IC50 (Plasmodium falciparum [9]) | IC50 (Plasmodium falciparum [10]) | Ki (Aminopeptidase N) | Ratio Ki [11]
CC(C)C[C@@H](C(=O)O)N(C(=O)[C@@H](N)Cc1ccccc1)C(C(=O)NC(C)(C)C)c1ccccc1 (stereo partly drawn) | 69% | 30% | Active | Non-Toxic | 2 - 2.5% | 49 - 100% | inactive |  |  |  |  |  | 
CC(C)C[C@@H](C(=O)O)N(C(=O)[C@@H](N)Cc1ccccc1)C(C(=O)NCC(=O)O)c1ccccc1 (stereo partly drawn) | 73% | 88% | Active | Non-Toxic | 89 - 97.5% | 97 - 99% |  |  |  |  |  |  | 
COc1ccc(C(N[C@@H](CC(C)C)C(=O)O)C(=O)NC2CCCCC2)cc1OC (stereo partly drawn) | 98% | 41% | Active | Non-Toxic |  |  |  |  |  |  |  |  | 
CCN(CC)CCCC(C)Nc1ccnc2cc(Cl)ccc12 (stereo not drawn) [CHLOROQUINE] |  |  |  |  |  |  |  | 25.9% |  |  |  |  | 
CC(C)C[C@@H](C(=O)O)N(CC(=O)NC(C)(C)C)C(=O)[C@@H](N)Cc1ccccc1 | 97% | 45% | Active | Non-Toxic | 48.1 - 79.5% | 87.5 - 91.5% |  |  |  |  |  |  | 
O=C(NC1CCCCC1)C(N[C@@H](Cc1ccccc1)C(=O)O)c1ccccc1 (stereo partly drawn) | 24% | 42% | Active | Non-Toxic |  |  |  |  | 1.9 µM | 26 µM |  |  | 
COc1ccc(C(C(=O)NC(C)(C)C)N(C(=O)[C@@H](N)Cc2ccccc2)[C@@H](CC(C)C)C(=O)O)cc1OC (stereo partly drawn) | 48% | 95% | Active | Non-Toxic | 42.5 - 99% | 56 - 99% |  |  |  |  |  |  | 
CC[C@H](C)[C@H](NC(C(=O)NC1CCCCC1)c1ccccc1)C(=O)O (stereo partly drawn) | 96% | 77% | Active | Non-Toxic | 39.5 - 41.5% | 84.5 - 92.5% |  |  |  |  |  |  | 
O=C(NC1CCCCC1)C(c1cccnc1)N1CCC[C@H]1C(=O)O (stereo partly drawn) | 99% | 83% | Active | Non-Toxic |  |  |  |  |  |  |  |  | 
O=C(NC1CCCCC1)C(c1ccccc1)N1CCC[C@H]1C(=O)O (stereo partly drawn) | 100% | 90% | Active | Non-Toxic |  |  |  |  |  |  |  |  | 
CC(C)C[C@@H](C(=O)O)N(C(=O)[C@@H](N)Cc1ccccc1)C(C(=O)NC(C)(C)C)c1cccnc1 (stereo partly drawn) | 64% | 86% | Active | Non-Toxic | 1 - 11.5% | 16 - 99% |  |  |  |  |  |  | 
CC(C)C[C@@H](C(=O)O)N(CC(=O)NCc1ccccc1)C(=O)[C@@H](N)Cc1ccccc1 | 91% | 89% | Active | Non-Toxic | 79 - 100% | 91 - 93.5% |  |  |  |  |  |  | 
O=C(CN[C@@H](Cc1ccccc1)C(=O)O)NC1CCCCC1 | 48% | 53% | Active | Non-Toxic | 21.5 - 56% | 84.5 - 99% |  |  | 6.1 µM | 37 µM | 29 µM | 21 µM | 3.4
